From paper PMC7529893, “Structural basis for substrate recognition and chemical inhibition of oncogenic MAGE ubiquitin ligases” (Nature Communications, 2020) come the findings set out here.

The target of this experiment is T1, MAGE-A11:PCF11 interaction (GST-MAGE-A11 and FAM-PCF11_4) (Homo sapiens, UniProt P43364).
T1 construct: GST-MAGE-A11 MHD (human MAGE-A11 MHD amino acid 218-429); made in house; host or cells: E. coli BL21(DE3)
T1 sequence (P43364 218-429): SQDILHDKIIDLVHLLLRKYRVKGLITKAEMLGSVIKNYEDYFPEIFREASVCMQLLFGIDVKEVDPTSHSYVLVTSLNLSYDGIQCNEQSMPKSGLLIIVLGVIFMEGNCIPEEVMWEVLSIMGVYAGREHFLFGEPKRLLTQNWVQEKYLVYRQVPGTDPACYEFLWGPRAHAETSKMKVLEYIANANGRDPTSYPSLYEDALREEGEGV
Description: TR-FRET primary / single point screen at 15 µM. It counts as binding. Here is the method: The TR-FRET assay buffer with a formula of 50 mM Tris pH 7.5, 20 mM MgCl2, 0.1 mg/ml BSA and 1 mM DTT was freshly prepared before each experiment. All TR-FRET assays were performed in black 384-well plates with 20 µl/well assay volume in the TR-FRET assay buffer at room temperature (~25 °C). All peptides or compounds were solubilized in DMSO. To test the competitive activity of peptides or compounds against the interaction between GST-MAGE-A11 MHD and FAM-PCF11_4 peptide, 10 µl/well peptide or compound at specified concentration was dispensed into a black 384-well low volume plate, followed by 5 µl/well FAM-PCF11_4 (800 nM), 5 µl/well Tb-anti-GST (20 nM), and GST-MAGE-A11 MHD (20 nM). The assay components in each well was then mixed by shaking the plate on an IKA MTS 2/4 digital microtiter plate shaker (IKA Works; Wilmington, NC, USA) for 1 min. The plate was further centrifuged in an Eppendorf 5810 centrifuge with an A-4-62 swing-bucket rotor (Eppendorf AG, Hamburg, Germany) at 201 g for 30 s. The plate was then incubated for 90 min with a lid to avoid light exposure to the assay components. After incubation, the fluorescent emission signals at 520 nm and 490 nm channels of individual wells were measured with a PHERAstar FS plate reader (BMG Labtech; Durham, NC, USA) by using a 340 nm excitation filter, 100 µs delay time, and 200 µs integration time. The TR-FRET fluorescence emission ratio (TR-FRET signal) for each well was presented as 10,000 × 520 nm/490 nm, which was used directly for curve fitting, or further converted to %Inhibition based on the respective positive and negative controls. The graphic software GraphPad Prism 4.81 (GraphPad Software; La Jolla, CA, USA) was used to generate curves and derive IC50 values of tested peptides or compounds, if applicable. TR-FRET screen for identifying MAGE-A11 small molecule inhibitors was performed as follows. The primary one-concentration screening and subsequent 10 or 20-concentration dose-response tests were accomplished with an automated High Throughput Screening system (HighRes Biosolutions, Beverly, MA)[30]. In the primary screening, 15 µl/well FAM-PCF11_4 (267 nM) was first dispensed with a Multidrop Combi Reagent Dispenser (Thermo Fisher Scientific, Waltham, MA) to black 384-well low-volume assay plates. The plates were spun down with a Velocity11 VSpin microplate centrifuge (Agilent Technologies, Santa Clara, CA). In total, 30 nl/well of 10 mM compound/DMSO solutions, or DMSO alone, were transferred from compound plates (the St. Jude FDA drug and bioactive library, Drug-like library and Lead-like library) or a control plate to the assay plates with a Pin Tool (V&P Scientific, San Diego, CA). The compounds were arrayed in columns 3–12 and columns 15–24 of compound plates. The controls were arrayed in columns 1, 2, 13, and 14 of a compound plate. In all, 5 µl/well Tb-anti-GST (20 nM) and GST-MAGE-A11 (20 nM) or 5 µl/well Tb-anti-GST (20 nM) alone was then dispensed to selected wells with a Multidrop Combi Reagent Dispenser. The final assay volume was 20 µl/well. […] The final tested compound concentration was 15 µM. The final FAM-PCF11_4 concentration was 200 nM and the final Tb-anti-GST concentration was 5 nM. The final GST-MAGE-A11 concentration was 5 nM except for those selected positive control wells in which GST-MAGE-A11 was not presented. The plates were then shaken with a big bear shaker (Big Bear Automation, Santa Clara, California) and spun down with the Velocity11 VSpin microplate centrifuge for 20 s. The plates were then incubated at room temperature in a Liconic incubator (Liconic US, Woburn, MA) for 90 min. The TR-FRET signals for individual wells were measured with a PHERAstar FS plate reader. The %Inhibition of each tested inhibitor was calculated by using Eq. 1. Those inhibitors with %Inhibition >30% in the primary screening were selected for further dose-response test, along with additional newly synthesized compounds. […]
Background: In TR-FRET formats the signal depends on donor and acceptor labels being close together.

[1] abbreviates: single point TR-FRET screening of 797 quinoline compounds against MAGE-A11:PCF11.
Where [2] appears, read: single point TR-FRET screening of quinoline compounds against MAGE-A11:PCF11, 15 µM.

Consider `Clc1ccc2c(NCCCCN(CCc3ccccc3)Cc3ccccc3)ccnc2c1` [SJ000361211], for which the “percent inhibition (TR-FRET)” value under setting [1] was determined as 23.3769.
Same read-out and setting: for `CCCN(CCCNc1c2ccc(Cl)cc2nc2ccc(OC)cc12)Cc1ccccn1` [SJ000520919] the value was -146.21.
For the compound `CCCN(CCCNc1ccnc2cc(C(F)(F)F)ccc12)Cc1ccc(Cl)c(C(F)(F)F)c1` [SJ000521015], under setting [2], the “percent inhibition (TR-FRET)” value is 11.045.
As for `CCCNCCCNc1c2ccc(Cl)cc2nc2ccc(OC)cc12` [SJ000361096], the “percent inhibition (TR-FRET)” value under setting [1] is on record as -498.476.
As to `CCOC(=O)c1cnc2c(C(F)(F)F)cccc2c1NCCCN1CCOCC1` [SJ000131358], under setting [2], the “percent inhibition (TR-FRET)” value was determined as 10.0613.
Same read-out and setting: for `CCCN(CCCNc1ccnc2cc(Cl)ccc12)Cc1ccccn1` [SJ000522743] the value was 1.3128; for `CCCN(CCCNc1c2ccc(Cl)cc2nc2ccc(OC)cc12)Cc1nc(C)cs1` [SJ000522966], -82.146.
`Cc1[nH]cnc1CN(CCCCNc1ccnc2cc(Cl)ccc12)Cc1ccccc1` [SJ000520428]: the “percent inhibition (TR-FRET)” value under setting [1] is given as 15.1059.
On the same count and under the same terms, for `COc1ccc2ncc(S(=O)(=O)c3ccc(C)c(C)c3)c(N3CCN(C)CC3)c2c1` [SJ000247333] the value was -8.554; for `O=C(O)c1ccccc1CN1CCC(Nc2ccnc3cc(Cl)ccc23)CC1` [SJ000523098], -2.194.
Take `CCCN(CCCNc1c2ccc(Cl)cc2nc2ccc(OC)cc12)Cc1c(C)cc(C)cc1C` [SJ000520934]: the “percent inhibition (TR-FRET)” value under setting [2] is -46.315.
The same measure, in the same setting: to `CCCN(CCCNc1ccnc2cc(C(F)(F)F)ccc12)CCC(C)(C)C` [SJ000520476] belongs 32.3298.
Take `CCCN(CCCCNc1ccnc2cc(Cl)ccc12)Cc1ccc[nH]1` [SJ000311198]: the “percent inhibition (TR-FRET)” value under setting [1] was -0.9977.
On the same count and under the same terms, to `Clc1ccc2c(NCCCCN(Cc3ccccc3)Cc3cccc4ccccc34)ccnc2c1` [SJ000361204] belongs 26.4906.
With `Clc1ccc2c(NCCCN(Cc3ccccc3)Cc3ccc4[nH]ccc4c3)ccnc2c1` [SJ000520430], the “percent inhibition (TR-FRET)” value under setting [2] amounted to 66.4274.
Same read-out and setting: for `CCCN(CCCNc1ccnc2cc(Cl)ccc12)Cc1cccn1C` [SJ000523014] the value was 22.7145; for `FC(F)(F)c1ccccc1CN(CCCNc1ccnc2cc(Cl)ccc12)Cc1ccccc1` [SJ000361168], 2.509.
For `CCOc1ccc(C(=O)c2cnc3ccc(C)cc3c2N2CCN(CC)CC2)cc1` [SJ000247339], under setting [1], the “percent inhibition (TR-FRET)” value is on record as -10.8066.
In the case of `CCCN(CCCNc1c2ccc(Cl)cc2nc2ccc(OC)cc12)Cc1ccco1` [SJ000520935], the “percent inhibition (TR-FRET)” value under setting [1] is -202.643.
Turning to `CCCN(CCCNc1ccnc2cc(C(F)(F)F)ccc12)Cc1cc2ccccc2s1` [SJ000520482], the “percent inhibition (TR-FRET)” value under setting [2] is on record as 13.0054.
Same read-out and setting: to `Fc1ccc(Oc2ccc3c(NCCCNCc4ccco4)ccnc3c2)cc1` [SJ000311222] belongs 9.365; to `FC(F)(F)c1ccc2c(NCCCNCC3CCCCC3)ccnc2c1` [SJ000361110], 27.1172.
The same measure, in the same setting: for `CCCN(CCCNc1ccnc2cc(C(F)(F)F)ccc12)Cc1csc2ccccc12` [SJ000520483] the value was 19.4469.
Consider `CCN1CCN(c2c(S(=O)(=O)c3ccc(Cl)cc3)cnc3ccc(C)cc23)CC1` [SJ000083967], for which, under setting [1], the “percent inhibition (TR-FRET)” value is -3.0982.
Same read-out and setting: to `COc1ccc2nc3cc(Cl)ccc3c(NCCCNCc3cccc(C#N)c3)c2c1` [SJ000523037] belongs -333.152.
Turning to `Fc1ccccc1CN(CCCNc1ccnc2cc(Cl)ccc12)Cc1ccccc1` [SJ000361175], the “percent inhibition (TR-FRET)” value under setting [2] is listed as 0.9627.
On to `CCCN(CCCNc1ccnc2cc(C(F)(F)F)ccc12)Cc1ccccc1` [SJ000361256], for which the “percent inhibition (TR-FRET)” value under setting [2] was 28.8195.
With `Cc1ccc(S(=O)(=O)c2cnc3ccc(C)cc3c2N2CCN(c3ccc(F)cc3)CC2)cc1` [SJ000117058], under setting [1], the “percent inhibition (TR-FRET)” value was -4.068.
As for `COc1cccc(CN(CCCNc2ccnc3cc(Cl)ccc23)Cc2ccccc2)c1` [SJ000361188], under setting [2], the “percent inhibition (TR-FRET)” value was -9.05.
For the compound `CCCN(CCCNc1c2ccc(Cl)cc2nc2ccc(OC)cc12)Cc1ccc(OC)c(F)c1` [SJ000522963], the “percent inhibition (TR-FRET)” value under setting [1] is given as -177.507.
For `Clc1ccc2c(NCCCN(Cc3ccccc3)Cc3ccc(Br)s3)ccnc2c1` [SJ000357461], the “percent inhibition (TR-FRET)” value under setting [2] was determined as 27.4987.
In the case of `COc1ccc2ncc(S(=O)(=O)c3ccccc3)c(N3CCN(Cc4ccccc4)CC3)c2c1` [SJ000247248], under setting [1], the “percent inhibition (TR-FRET)” value is on record as -71.1577.
As to `c1ccc(CCc2ccc3c(NCCCNCc4ccco4)ccnc3c2)cc1` [SJ000311254], the “percent inhibition (TR-FRET)” value under setting [2] is 15.9461.
For the compound `COc1ccc2nc3cc(Cl)ccc3c(NCCCNCc3cc(OC(F)(F)F)ccc3OC)c2c1` [SJ000521001], the “percent inhibition (TR-FRET)” value under setting [1] is -231.84.
Take `COc1cccc(F)c1CN1CCC(Nc2ccnc3cc(Cl)ccc23)CC1` [SJ000357498]: under setting [1], the “percent inhibition (TR-FRET)” value stood at 10.503.
On the same count and under the same terms, to `CCc1nc2ccccc2c(NC(=O)CN2CCCCC2)c1C` [SJ000111682] belongs 1.593.
`c1ccc(Oc2ccc3c(NCCCNCc4ccco4)ccnc3c2)cc1` [SJ000311206]: the “percent inhibition (TR-FRET)” value under setting [2] stood at 14.5885.
In the case of `Clc1ccc2c(NCCCN(Cc3ccccc3)Cc3cc4ccccc4o3)ccnc2c1` [SJ000520461], the “percent inhibition (TR-FRET)” value under setting [2] came to 5.6.
As for `CCCN(CCCNc1ccnc2cc(Cl)ccc12)Cc1ccc(C)o1` [SJ000357437], the “percent inhibition (TR-FRET)” value under setting [2] is recorded as 20.147.
`CCCN(CCCNc1c2ccc(Cl)cc2nc2ccc(OC)cc12)Cc1ccc(OC)cc1` [SJ000520943]: the “percent inhibition (TR-FRET)” value under setting [1] is recorded as -241.432.
Still for that read-out and setting: for `CCCN(CCCNc1c2ccc(Cl)cc2nc2ccc(OC)cc12)Cc1ccccc1` [SJ000520925] the value was -127.926.
For `CCOC(=O)c1cnc2ccc(C(=O)OC)cc2c1NCCCN1CCOCC1` [SJ000279665], the “percent inhibition (TR-FRET)” value under setting [2] is listed as 10.7073.
On the same count and under the same terms, for `CCCN(CCCNc1ccnc2cc(Cl)ccc12)CCc1ccccc1` [SJ000357574] the value was 4.8836.
Take `CCOC(=O)c1cnc2ccc(Cl)cc2c1N1CCN(C)CC1` [SJ000187322]: the “percent inhibition (TR-FRET)” value under setting [1] was -0.9277.
Still for that read-out and setting: to `Clc1ccc2c(NCCCCN(Cc3ccccc3)Cc3ccccc3)ccnc2c1` [SJ000522718] belongs 17.3464.
For `COc1cccc(CN(CCCNc2ccnc3cc(Cl)ccc23)Cc2ccccc2)c1O` [SJ000357465], the “percent inhibition (TR-FRET)” value under setting [2] amounted to 13.1749.
Still for that read-out and setting: for `Clc1ccc2c(NCCCN(Cc3ccccc3)Cc3ccc(Br)o3)ccnc2c1` [SJ000312671] the value was -1.797.
Consider `Cc1cc(C)c(CN2CCC(Nc3ccnc4cc(Cl)ccc34)CC2)c(C)c1` [SJ000523084], for which the “percent inhibition (TR-FRET)” value under setting [1] is on record as 11.7451.
